This is an account of results in patent publication US12508286B2, “Composition for treating spinal cord injury, comprising stem cells treated with novel compound” (YJ CERAPEUTICS INC., priority 2019, dated 2025).

Structures are written as SMILES.

This experiment has as its system MSCs. The experiment in a line: Stem cell differentiation confirmed with neural lineage markers. In kind it is cell-based. As to conditions: MSCs cultured in a medium containing the compound for 5 days. On the procedure: Referring to FIGS. 3 and 4, MSCs were cultured in a medium containing the compound for 5 days, and the differentiation status was confirmed using a neural lineage marker. As a result.
MSCs of passage 3 received from Kangstem Biotech were maintained in a KSB3 basal medium containing 10% FBS (Gibco) and supplements.
After passage 1, MSCs of passage 4 were stocked and stored in liquid nitrogen.
Referring to FIG. 1, MSCs of passage 5 were seeded at 1 mL per well in 12 wells diluted to 1.1×10^4/mL.
After 4 hours, the cells were treated with 40 μM of L1 or L3 or 30 μM of L2 (Formula 1).
After three days, the medium was changed with a new medium, and the cells were treated with the compound in the same manner and then additionally cultured for two days.

Take `CCc1ccc(N(C(=O)COC)c2nc3cc(Cl)ccc3o2)cc1` [L2, N-(5-Chlorobenzo[d]oxazol-2-yl)-N-(4-ethylphenyl)-2-methoxyacetamide]: the GFAP expression entry is reported as “hardly expressed”, the Nestin expression entry is “hardly expressed” and the Tuj1-positive cells is at least 90%.
